Data: patent US6287787A, “Dimeric oligopeptide mixture sets” (Torrey Pines Institute for Molecular Studies, priority 1993, dated 2001)
Where a SMILES comes first, the peptide text is derived from it. Bridges are numbered along the chain shown (N, C = ends). Roman numbers before positions name the chains, in order. [ ]: non-standard residue; d: D form. Met(O) = CS(=O)CC[C@H](N)C(=O)O

Target: T1, trypsin (bovine pancreas trypsin, Type I) (Bos taurus, UniProt P00760)
T1 construct: purchased Sigma Chemicals T 8003; host or cells: bovine pancreas
T1 sequence (P00760 24-246): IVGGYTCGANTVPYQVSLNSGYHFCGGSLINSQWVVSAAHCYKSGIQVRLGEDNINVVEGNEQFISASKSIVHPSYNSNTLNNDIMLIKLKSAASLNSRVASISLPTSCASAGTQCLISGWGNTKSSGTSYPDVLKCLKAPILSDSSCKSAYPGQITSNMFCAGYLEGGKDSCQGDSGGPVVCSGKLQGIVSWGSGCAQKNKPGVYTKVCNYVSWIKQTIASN
Test: Competitive inhibition of tryptic hydrolysis of Nα-benzoyl-D,L-arginine-p-nitroanilide
Assay type: biochemical
Protocol: The inhibition observed was 55 percent at 5 mg/ml.
For these assays, 50 μl of dimeric oligopeptide mixture set solutions in water (0.5-5 mM) were added to 0.1 M Tris-HCl containing 0.025 M CaCl2, pH 7.8 (100 μl), to which were added 15 μl of trypsin (bovine pancreas trypsin, Type I; Sigma Chemicals T 8003; 0.05 mg/ml in 0.02 N HCl ). The solution was maintained for 30 minutes, and the above substrate (N^α -benzoyl-D,L-arginine-p-nitroanitide) was added (100 μl, 1 mg/ml in water). Absorbances at 405 nm were read using a Titertek multichannel photometer after another 30 minutes had elapsed and were expressed as a percentage of the control (absorbance of a solution without peptide).

IC50: 53 µM
Compound: CC(=O)N[C@@H](CC[S+](C)[O-])C(=O)N[C@@H](CSSC[C@H](NC(=O)[C@H](CC[S+](C)[O-])NC(C)=O)C(=O)N[C@@H](Cc1c[nH]c2ccccc12)C(=O)N[C@@H](CCCNC(=N)N)C(N)=O)C(=O)N[C@@H](Cc1c[nH]c2ccccc12)C(=O)N[C@@H](CCCNC(=N)N)C(N)=O (stereo partly shown) [SEQ ID NO:4] (I: Ac-[Met(O)]CWR-NH2 / II: Ac-[Met(O)]CWR-NH2; disulfide I:2-II:2)
